The values that follow come from US7071190B2, “Inhibitors to tubulin polymerization” (Rigel Pharmaceuticals, Inc., priority 2002, dated 2006).

This test has as its system A549 cells. The test is described as follows: Bromodeoxyuridine (BrdU) proliferation assay. The settings on record: for IC50: Homo sapiens, A549, 48 h, BrdU ELISA 48 hours after addition of compound, tested 0.03-10 uM, cell line not given (A549 method; SW-480 and MDA-MB-231 also used), read-out: Assay Result (IC50μM); for Activity ranking: most active compounds of the invention / Activity ranking: particularly active examples of the compounds of the invention: antiproliferative activity. It counts as cell-based, human. The method, then: In order to determine the antiproliferative activity of microtubule inhibitors, A549 cells were plated in 96 well plates at 2000 cells/well 24 hours prior to the addition of a compound of the invention in 80 ul growth media (F12K, 10% FBS, Pen/Strep). Prior to addition to cells, compounds were solubilized in 100% DMSO to 5 mM and serially diluted in 6 semi-log steps in 100% DMSO. The diluted compounds were added to cells by two 15.8-fold dilution steps, the first being a dilution into a 23% ethanol/H2O mixture and the second being a dilution into growth media. Finally, these dilutions were followed by a 1:1 dilution onto cells. The resulting final solvent concentration was 0.2% DMSO/0.75% ethanol. Compounds were tested at final concentrations of 10, 3, 1, 0.3, 0.1 and 0.03 uM. Forty-eight hours after the addition of compound, the effects on cellular proliferation were measured using a cell proliferation BrdU ELISA (Roche Molecular Biochemicals, Cat.#1 669 915).
(In general: Uptake of a labelled nucleoside into DNA is a usual measure of proliferation.)

Regarding `Cc1ccc(-c2cc3ncnc(NNC(=S)NC4CC4)c3s2)cc1C` [Compound 55], the IC50 came out at 0.15 µM, the “Activity ranking: most active compounds of the invention” value (shortened to “Activity ranking: most active compounds”) is “most active” and the “Activity ranking: particularly active examples of the compounds of the invention” value was “particularly active”.

For the compound `S=C(NNc1ncnc2cc(-c3ccc4c(c3)OCO4)sc12)NC1CC1` [Compound 56], the “Activity ranking: particularly active examples of the compounds of the invention” value was “particularly active”.

On to `S=C(NCc1ccccc1)NNc1ncnc2cc(-c3ccccc3)sc12` [Compound 57], for which the IC50 worked out at 0.23 µM, the “Activity ranking: most active compounds” value is “most active” and the “Activity ranking: particularly active examples of the compounds of the invention” value was “particularly active”.

On to `S=C(NCCc1ccccc1)NNc1ncnc2cc(-c3ccccc3)sc12` [Compound 58], for which the IC50 was 1.11 µM and the “Activity ranking: particularly active examples of the compounds of the invention” value is “particularly active”.

In the case of `S=C(NCC1CCCO1)NNc1ncnc2cc(-c3ccccc3)sc12` (centres unmarked) [Compound 63], the IC50 came out at 0.211 µM, the “Activity ranking: most active compounds” value is “most active” and the “Activity ranking: particularly active examples of the compounds of the invention” value is “particularly active”.

As for `S=C(NC[C@H]1CCCO1)NNc1ncnc2cc(-c3ccccc3)sc12` [Compound 64], the IC50 was determined as 0.188 µM, the “Activity ranking: most active compounds” value is reported as “most active” and the “Activity ranking: particularly active examples of the compounds of the invention” value is recorded as “particularly active”.

In the case of `S=C(NC[C@@H]1CCCO1)NNc1ncnc2cc(-c3ccccc3)sc12` [Compound 65], the IC50 was found to be 0.134 µM, the “Activity ranking: most active compounds” value was “most active” and the “Activity ranking: particularly active examples of the compounds of the invention” value is given as “particularly active”.

With `S=C(NCCN1CCCCC1)NNc1ncnc2cc(-c3ccccc3)sc12` [Compound 67], the IC50 worked out at 18.6 µM and the “Activity ranking: particularly active examples of the compounds of the invention” value is on record as “particularly active”.

With `S=C(NCCN1CCOCC1)NNc1ncnc2cc(-c3ccccc3)sc12` [Compound 68], the IC50 was 6.03 µM and the “Activity ranking: particularly active examples of the compounds of the invention” value was “particularly active”.

On to `S=C(NCc1ccco1)NNc1ncnc2cc(-c3ccccc3)sc12` [Compound 69], for which the IC50 stood at 0.093 µM, the “Activity ranking: most active compounds” value is on record as “most active” and the “Activity ranking: particularly active examples of the compounds of the invention” value was “particularly active”.

With `CNC(=S)NNc1ncnc2cc(-c3ccccc3)sc12` [Compound 70], the IC50 is 1.61 µM and the “Activity ranking: particularly active examples of the compounds of the invention” value is listed as “particularly active”.

In the case of `CCCNC(=S)NNc1ncnc2cc(-c3ccccc3)sc12` [Compound 71], the IC50 stood at 0.02 µM, the “Activity ranking: most active compounds” value is “most active” and the “Activity ranking: particularly active examples of the compounds of the invention” value was “particularly active”.

For the compound `CC(C)NC(=S)NNc1ncnc2cc(-c3ccccc3)sc12` [Compound 72], the IC50 amounted to 0.024 µM, the “Activity ranking: most active compounds” value is given as “most active” and the “Activity ranking: particularly active examples of the compounds of the invention” value was “particularly active”.

In the case of `COCCNC(=S)NNc1ncnc2cc(-c3ccccc3)sc12` [Compound 73], the IC50 is 0.202 µM, the “Activity ranking: most active compounds” value is recorded as “most active” and the “Activity ranking: particularly active examples of the compounds of the invention” value is “particularly active”.

For the compound `COCCCNC(=S)NNc1ncnc2cc(-c3ccccc3)sc12` [Compound 74], the IC50 worked out at 0.054 µM, the “Activity ranking: most active compounds” value is on record as “most active” and the “Activity ranking: particularly active examples of the compounds of the invention” value is “particularly active”.

For `COC(=O)CCNC(=S)NNc1ncnc2cc(-c3ccccc3)sc12` [Compound 76], the IC50 is 0.187 µM, the “Activity ranking: most active compounds” value is “most active” and the “Activity ranking: particularly active examples of the compounds of the invention” value is “particularly active”.

Turning to `Cc1cccc(-c2cc3ncnc(NNC(=S)NCC4CCCO4)c3s2)c1` (centres unmarked) [Compound 79], the IC50 was found to be 0.719 µM, the “Activity ranking: most active compounds” value was “most active” and the “Activity ranking: particularly active examples of the compounds of the invention” value is on record as “particularly active”.

Turning to `Cc1cccc(-c2cc3ncnc(NNC(=S)NC[C@@H]4CCCO4)c3s2)c1` [Compound 80], the IC50 stood at 0.151 µM, the “Activity ranking: most active compounds” value is “most active” and the “Activity ranking: particularly active examples of the compounds of the invention” value is on record as “particularly active”.

With `COc1cccc(-c2cc3ncnc(NNC(=S)NCC4CCCO4)c3s2)c1` (centres unmarked) [Compound 81], the “Activity ranking: particularly active examples of the compounds of the invention” value is recorded as “particularly active”.

With `Cc1cccc(-c2cc3ncnc(NNC(=S)NCC4COC(C)(C)O4)c3s2)c1` (centres unmarked) [Compound 82], the “Activity ranking: particularly active examples of the compounds of the invention” value was “particularly active”.

Turning to `Cc1cccc(-c2cc3ncnc(NNC(=S)NCc4ccco4)c3s2)c1` [Compound 83], the IC50 amounted to 0.127 µM, the “Activity ranking: most active compounds” value was “most active” and the “Activity ranking: particularly active examples of the compounds of the invention” value is “particularly active”.

Take `CCNC(=S)NNc1ncnc2cc(-c3cccc(C)c3)sc12` [Compound 84]: the IC50 was 0.113 µM, the “Activity ranking: most active compounds” value is “most active” and the “Activity ranking: particularly active examples of the compounds of the invention” value is on record as “particularly active”.

With `CCCNC(=S)NNc1ncnc2cc(-c3cccc(C)c3)sc12` [Compound 85], the IC50 turned out to be 0.044 µM, the “Activity ranking: most active compounds” value is given as “most active” and the “Activity ranking: particularly active examples of the compounds of the invention” value was “particularly active”.

For the compound `Cc1cccc(-c2cc3ncnc(NNC(=S)NC(C)C)c3s2)c1` [Compound 86], the IC50 came out at 0.026 µM, the “Activity ranking: most active compounds” value was “most active” and the “Activity ranking: particularly active examples of the compounds of the invention” value is “particularly active”.

In the case of `COCCNC(=S)NNc1ncnc2cc(-c3ccc(C)cc3)sc12` [Compound 87], the IC50 turned out to be 0.166 µM, the “Activity ranking: most active compounds” value was “most active” and the “Activity ranking: particularly active examples of the compounds of the invention” value was “particularly active”.

As for `COCCCNC(=S)NNc1ncnc2cc(-c3cccc(C)c3)sc12` [Compound 89], the IC50 amounted to 0.028 µM, the “Activity ranking: most active compounds” value was “most active” and the “Activity ranking: particularly active examples of the compounds of the invention” value is reported as “particularly active”.

As to `COCCNC(=S)NNc1ncnc2cc(-c3cccc(C(F)(F)F)c3)sc12` [Compound 91], the IC50 came to 2.2 µM and the “Activity ranking: particularly active examples of the compounds of the invention” value is given as “particularly active”.

Turning to `COCCNC(=S)NNc1ncnc2cc(-c3ccc(OC)cc3)sc12` [Compound 92], the IC50 came out at 1.19 µM and the “Activity ranking: particularly active examples of the compounds of the invention” value is “particularly active”.

On to `Cc1cc(C)cc(-c2cc3ncnc(NNC(=S)NCC4CCCO4)c3s2)c1` (centres unmarked) [Compound 98], for which the IC50 was found to be 0.025 µM, the “Activity ranking: most active compounds” value is “most active” and the “Activity ranking: particularly active examples of the compounds of the invention” value is given as “particularly active”.

On to `Cc1cc(C)cc(-c2cc3ncnc(NNC(=S)NC(C)C)c3s2)c1` [Compound 99], for which the IC50 stood at 0.086 µM, the “Activity ranking: most active compounds” value is “most active” and the “Activity ranking: particularly active examples of the compounds of the invention” value is “particularly active”.

Take `COCCNC(=S)NNc1ncnc2cc(-c3cc(C)cc(C)c3)sc12` [Compound 100]: the IC50 turned out to be 0.013 µM, the “Activity ranking: most active compounds” value is “most active” and the “Activity ranking: particularly active examples of the compounds of the invention” value is given as “particularly active”.

As to `COCCCNC(=S)NNc1ncnc2cc(-c3cc(C)cc(C)c3)sc12` [Compound 101], the IC50 is 0.029 µM, the “Activity ranking: most active compounds” value is “most active” and the “Activity ranking: particularly active examples of the compounds of the invention” value was “particularly active”.

Take `COCCNC(=S)NNc1ncnc2cc(-c3ccc4c(c3)OCO4)sc12` [Compound 102]: the IC50 was determined as 0.385 µM, the “Activity ranking: most active compounds” value is recorded as “most active” and the “Activity ranking: particularly active examples of the compounds of the invention” value is “particularly active”.

With `S=C(NCC(c1ccccc1)c1ccccc1)NNc1ncnc2cc(-c3ccccc3)sc12` [Compound 105], the IC50 is 8.15 µM and the “Activity ranking: particularly active examples of the compounds of the invention” value was “particularly active”.
